Data taken from patent publication US7632972B2, “Compounds and methods for treatment of cancer and modulation of programmed cell death for melanoma and other cancer cells” (The Board of Trustees of the University of Illionis, priority 2003, dated 2009).

Key:
Type in all cases: cell-based, human
HCT-116 = assay: NCI 60 cell line screen (SRB), Colon Cancer
Text: (§1) The operation of this screen utilizes 60 different human tumor cell lines, representing leukemia, melanoma and cancers of the lung, colon, brain, ovary, breast, prostate, and kidney. The aim is to prioritize for further evaluation, synthetic compounds or natural product samples showing selective growth inhibition or cell killing of particular tumor cell lines. This screen is unique in that the complexity of a 60 cell line dose response produced by a given compound results in a biological response pattern which can be utilized in pattern recognition algorithms. Using these algorithms, it is possible to assign a putative mechanism of action to a test compound, or to determine that the response pattern is unique and not similar to that of any of the standard prototype compounds included in the NCl database (see DTP Overview tab). In addition, following characterization of various cellular molecular targets in the 60 cell lines, it may be possible to select compounds most likely to interact with a specific molecular target.
(§2) The human tumor cell lines of the cancer screening panel are grown in RPMI 1640 medium containing 5% fetal bovine serum and 2 mM L-glutamine. For a typical screening experiment, cells are inoculated into 96 well microtiter plates in 100 μL at plating densities ranging from 5,000 to 40,000 cells/well depending on the doubling time of individual cell lines. After cell inoculation, the microtiter plates are incubated at 37° C., 5% CO2, 95% air and 100% relative humidity for 24 h prior to addition of experimental drugs.
(§3) After 24 h, two plates of each cell line are fixed in situ with TCA, to represent a measurement of the cell population for each cell line at the time of drug addition (Tz). Experimental drugs are solubilized in dimethyl sulfoxide at 400-fold the desired final maximum test concentration and stored frozen prior to use. At the time of drug addition, an aliquot of frozen concentrate is thawed and diluted to twice the desired final maximum test concentration with complete medium containing 50 μg/ml gentamicin. Additional four, 10-fold or ½ log serial dilutions are made to provide a total of five drug concentrations plus control. Aliquots of 100 μl of these different drug dilutions are added to the appropriate microtiter wells already containing 100 μl of medium, resulting in the required final drug concentrations.
(§4) Following drug addition, the plates are incubated for an additional 48 h at 37° C., 5% CO2, 95% air, and 100% relative humidity. For adherent cells, the assay is terminated by the addition of cold TCA. Cells are fixed in situ by the gentle addition of 50 μl of cold 50% (w/v) TCA (final concentration, 10% TCA) and incubated for 60 minutes at 4° C. The supernatant is discarded, and the plates are washed five times with tap water and air dried. Sulforhodamine B (SRB) solution (100 μl) at 0.4% (w/v) in 1% acetic acid is added to each well, and plates are incubated for 10 minutes at room temperature. After staining, unbound dye is removed by washing five times with 1% acetic acid and the plates are air dried. Bound stain is subsequently solubilized with 10 mM trizma base, and the absorbance is read on an automated plate reader at a wavelength of 515 nm. For suspension cells, the methodology is the same except that the assay is terminated by fixing settled cells at the bottom of the wells by gently adding 50 μl of 80% TCA (final concentration, 16% TCA). Using the seven absorbance measurements [time zero, (Tz), control growth, (C), and test growth in the presence of drug at the five concentration levels (Ti)], the percentage growth is calculated at each of the drug concentrations levels. Percentage growth inhibition is calculated as: [(Ti−Tz)/(C−Tz)]×100 for concentrations for which Ti>/=Tz [(Ti−Tz)/Tz]×100 for concentrations for which Ti<Tz.
(§5) Three dose response parameters are calculated for each experimental agent. […]

KM12 = assay: NCI 60 cell line screen (SRB), Colon Cancer
Text: as §1, §2, §3, §4, §5

COLO 205 = assay: NCI 60 cell line screen (SRB), Colon Cancer
Text: as §1, §2, §3, §4, §5

NCI-H460 = assay: NCI 60 cell line screen (SRB), Non-Small Cell Lung Cancer
Text: as §1, §2, §3, §4, §5

HOP-62 = assay: as above
Text: as §1, §2, §3, §4, §5

EKVX = assay: as above
Text: as §1, §2, §3, §4, §5

NCI-H522 = assay: as above
Text: as §1, §2, §3, §4, §5

A549/ATCC = assay: as above
Text: as §1, §2, §3, §4, §5

HOP-92 = assay: as above
Text: as §1, §2, §3, §4, §5

[1] = read-out: LC50 (the source's name)

Structure (SMILES): COc1cccc(CCNC(=O)CC(c2ccccc2)(c2ccccc2)c2ccccc2)c1 [Compound Z3]
- GI50 (HCT-116; HCT-116): 2.58 µM
- TGI (HCT-116; HCT-116): 2.67E−05
- Percent Growth (HCT-116; HCT-116, Log10 Concentration −4.0): −22%
- Percent Growth (HCT-116; HCT-116, Log10 Concentration −5.0): 16%
- Percent Growth (HCT-116; HCT-116, Log10 Concentration −6.0): 74%
- Percent Growth (HCT-116; HCT-116, Log10 Concentration −7.0): 91%
- Percent Growth (HCT-116; HCT-116, Log10 Concentration −8.0): 97%
- CC50 (HCT-116; HCT-116, read-out: LC50 (the source's name)): > 100 µM
- GI50 (KM12; KM12): 4.75 µM
- TGI (KM12; KM12): >1.00E−04
- Percent Growth (KM12; KM12, Log10 Concentration −4.0): 14%
- Percent Growth (KM12; KM12, Log10 Concentration −5.0): 25%
- Percent Growth (KM12; KM12, Log10 Concentration −6.0): 101%
- Percent Growth (KM12; KM12, Log10 Concentration −7.0): 107%
- Percent Growth (KM12; KM12, Log10 Concentration −8.0): 111%
- CC50 (KM12; KM12, read-out: LC50 (the source's name)): > 100 µM
- GI50 (COLO 205; COLO 205): 12.8 µM
- TGI (COLO 205; COLO 205): >1.00E−04
- Percent Growth (COLO 205; COLO 205, Log10 Concentration −4.0): 27%
- Percent Growth (COLO 205; COLO 205, Log10 Concentration −5.0): 53%
- Percent Growth (COLO 205; COLO 205, Log10 Concentration −6.0): 106%
- Percent Growth (COLO 205; COLO 205, Log10 Concentration −7.0): 117%
- Percent Growth (COLO 205; COLO 205, Log10 Concentration −8.0): 99%
- CC50 (COLO 205; COLO 205, read-out: LC50 (the source's name)): > 100 µM
- GI50 (NCI-H460; NCI-H460): 10.5 µM
- TGI (NCI-H460; NCI-H460): >1.00E−04
- Percent Growth (NCI-H460; NCI-H460, Log10 Concentration −4.0): 18%
- Percent Growth (NCI-H460; NCI-H460, Log10 Concentration −5.0): 51%
- Percent Growth (NCI-H460; NCI-H460, Log10 Concentration −6.0): 90%
- Percent Growth (NCI-H460; NCI-H460, Log10 Concentration −7.0): 117%
- Percent Growth (NCI-H460; NCI-H460, Log10 Concentration −8.0): 97%
- CC50 (NCI-H460; NCI-H460, read-out: LC50 (the source's name)): > 100 µM
- GI50 (HOP-62; HOP-62): 59.4 µM
- TGI (HOP-62; HOP-62): >1.00E−04
- Percent Growth (HOP-62; HOP-62, Log10 Concentration −4.0): 40%
- Percent Growth (HOP-62; HOP-62, Log10 Concentration −5.0): 83%
- Percent Growth (HOP-62; HOP-62, Log10 Concentration −6.0): 97%
- Percent Growth (HOP-62; HOP-62, Log10 Concentration −7.0): 105%
- Percent Growth (HOP-62; HOP-62, Log10 Concentration −8.0): 92%
- CC50 (HOP-62; HOP-62, read-out: LC50 (the source's name)): > 100 µM
- GI50 (EKVX): 22.7 µM
- TGI (EKVX): >1.00E−04
- Percent Growth (EKVX; Log10 Concentration −4.0): 29%
- Percent Growth (EKVX; Log10 Concentration −5.0): 62%
- Percent Growth (EKVX; Log10 Concentration −6.0): 109%
- Percent Growth (EKVX; Log10 Concentration −7.0): 121%
- Percent Growth (EKVX; Log10 Concentration −8.0): 108%
- CC50 (EKVX; [1]): > 100 µM
- TGI (NCI-H522; NCI-H522): 8.45E−05
- Percent Growth (NCI-H522; NCI-H522, Log10 Concentration −4.0): −1%
- Percent Growth (NCI-H522; NCI-H522, Log10 Concentration −5.0): 12%
- Percent Growth (NCI-H522; NCI-H522, Log10 Concentration −6.0): 58%
- Percent Growth (NCI-H522; NCI-H522, Log10 Concentration −7.0): 46%
- Percent Growth (NCI-H522; NCI-H522, Log10 Concentration −8.0): 67%
- CC50 (NCI-H522; NCI-H522, read-out: LC50 (the source's name)): > 100 µM
- GI50 (A549/ATCC): 4.11 µM
- TGI (A549/ATCC): 9.65E−05
- Percent Growth (A549/ATCC; Log10 Concentration −5.0): 25%
- Percent Growth (A549/ATCC; Log10 Concentration −6.0): 89%
- Percent Growth (A549/ATCC; Log10 Concentration −7.0): 94%
- Percent Growth (A549/ATCC; Log10 Concentration −8.0): 102%
- CC50 (A549/ATCC; [1]): > 100 µM
- GI50 (HOP-92; HOP-92): > 100 µM
- TGI (HOP-92; HOP-92): >1.00E−04
- Percent Growth (HOP-92; HOP-92, Log10 Concentration −4.0): 68%
- Percent Growth (HOP-92; HOP-92, Log10 Concentration −5.0): 70%
- Percent Growth (HOP-92; HOP-92, Log10 Concentration −6.0): 94%
- Percent Growth (HOP-92; HOP-92, Log10 Concentration −7.0): 94%
- Percent Growth (HOP-92; HOP-92, Log10 Concentration −8.0): 99%
- CC50 (HOP-92; HOP-92, read-out: LC50 (the source's name)): > 100 µM
